Reference: patent US11596614B2, “Treatment of intrahepatic cholestatic diseases” (CymaBay Therapeutics, Inc., priority 2014, dated 2023)

Key:
[1] = gradient-gel electrophoresis, cited from earlier work
PPARa = molecular target: T1, PPARa (Homo sapiens, UniProt Q07869); test: Specificity for PPARδ compared with PPARa; type: biochemical
T1 sequence (Q07869 1-468): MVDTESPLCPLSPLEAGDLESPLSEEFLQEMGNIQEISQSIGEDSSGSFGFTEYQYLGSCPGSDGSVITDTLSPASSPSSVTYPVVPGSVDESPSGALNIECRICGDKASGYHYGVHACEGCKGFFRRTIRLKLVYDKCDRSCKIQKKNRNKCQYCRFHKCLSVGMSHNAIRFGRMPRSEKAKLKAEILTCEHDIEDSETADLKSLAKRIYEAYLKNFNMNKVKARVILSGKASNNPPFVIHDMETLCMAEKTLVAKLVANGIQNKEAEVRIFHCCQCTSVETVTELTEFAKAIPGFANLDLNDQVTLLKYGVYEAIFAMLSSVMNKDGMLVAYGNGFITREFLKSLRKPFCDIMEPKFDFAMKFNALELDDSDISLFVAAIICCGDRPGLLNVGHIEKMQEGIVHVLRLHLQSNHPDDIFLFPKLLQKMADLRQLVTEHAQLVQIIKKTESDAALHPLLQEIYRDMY
Source text: It is specific (>600-fold and >2500-fold compared with PPARa and peroxisome proliferator-activated receptor-γ receptors). PPARδ activation stimulates fatty acid oxidation and utilization, improves plasma lipid and lipoprotein metabolism, glucose utilization, and mitochondrial respiration, and preserves stem cell homeostasis.

[2] = Preclinical elimination study; type: in vivo
[3] = tested on: subjects with an intrahepatic cholestatic disease such as PBC; test: Example 2: treatment of adult subjects with an intrahepatic cholestatic disease such as PBC; type: in vivo, human; conditions: 5, 10, 25, or 50 mg/day orally
Description: Subjects are permitted their usual other medications, including UDCA. […] At each visit, after a 12-hour fast, blood is drawn and urine collected; and a standard metabolic panel, complete blood count, and standard urinalysis are performed. Blood is analyzed for TC, HDL-C, TG, VLDL-C, LDL-C, and apolipoprotein B, for liver function markers such as total and bone-specific alkaline phosphatases, for γ-glutamyl transpeptidase, and also for total and conjugated bilirubin. The subjects also maintain health diaries, which are reviewed at each visit.

[4] = tested on: subjects with mixed dyslipidemia; conditions: cited from earlier work
subjects with PBC = test: Example 1: trial in subjects with PBC on UDCA; type: in vivo, human; conditions: on treatment, 50 or 200 mg/day
Source text: The trial subjects were adult, male or female, with a diagnosis of PBC by at least two of the following three criteria: (a) a history of alkaline phosphatase (ALP) above the upper limit of normal (ULN) for at least six months, (b) positive anti-mitochondrial antibody titers> 1/40 on immunofluorescence or M2 positive by enzyme linked immunosorbent assay or positive PBC-specific antinuclear antibodies, and (c) documented liver biopsy result consistent with PBC, on a stable and recommended dose of UDCA for the past twelve months, and ALP≥1.67×ULN. Exclusion criteria included AST or ALT≥3×ULN, total bilirubin (TBIL)≥2×ULN, autoimmune hepatitis or a history of chronic viral hepatitis, PSC, the current use of fibrates or simvastatin, the use of colchicine, methotrexate, azathioprine, or systemic steroids in the previous two months, the use of an experimental treatment for PBC, and the use of an experimental or unapproved immunosuppressant. The primary study endpoint was decrease in ALP, and the secondary endpoint was the responder rate for subjects achieving ALP<1.67×ULN and total bilirubin within normal limit, and >15% decrease in ALP. […] According to the original statistical plan, changes in ALP were calculated using the last observation carried forward. […]

[5] = once daily oral, 8 weeks, seladelpar 50 or 100 mg, ATV 20 mg

SMILES	conversion of LDL particle size pattern B (predominant LDL particle size less than 25.75 nm) [1]	conversion of LDL particle size pattern I (predominant LDL particle size 25.75 nm to 26.34 nm) ([1]; pattern A = predominant LDL particle size greater than 26.34 nm)	specificity for PPARδ compared with PPARa (PPARa)	distribution of drug in bile [2]	improvement in disease (ALP and GGT) [3]	safety and tolerability ([4]; 50 or 100 mg once daily oral, 8 weeks)	reduction of high-sensitivity C-reactive protein ([4]; compared to placebo, seladelpar 50 or 100 mg once daily oral alone and in combination with ATV 20 mg, 8 weeks, P<0.05)	raise of HDL-C ([4]; compared to placebo, seladelpar 50 or 100 mg once daily oral alone and in combination with ATV 20 mg, 8 weeks)	reduction of the percentage of subjects meeting the criteria for metabolic syndrome ([4]; mixed dyslipidemia)	decrease of small/very small LDL particles [4, 5]	increase of large LDL particles ([4]; once daily oral, 8 weeks, seladelpar 50 or 100 mg)	adverse events of pruritus (subjects with PBC)	decrease of large LDL particles ([4]; once daily oral, 8 weeks, ATV 20 mg)
CCO[C@H](COc1ccc(C(F)(F)F)cc1)CSc1ccc(OCC(=O)O)c(C)c1 [Seladelpar, (R)-2-(4-((2-ethoxy-3-(4-(trifluoromethyl)phenoxy)propyl)thio)-2-methylphenoxy)acetic acid]	to pattern I or A	to pattern A	> 600 fold	concentrated in bile	a decrease in ALP and GGT	safe and generally well-tolerated	43-72%	1-12%	> 2 fold	40-48%	34-44%	no adverse events of pruritus were reported	
CC(C)c1c(C(=O)Nc2ccccc2)c(-c2ccccc2)c(-c2ccc(F)cc2)n1CC[C@@H](O)C[C@@H](O)CC(=O)O [ATV, atorvastatin, reference compound]										25%			30%
